Reference: patent publication US4093796A, “Antibiotic derivatives of polyene macrolide group and method of obtaining the same” (Politechnika Gdanska, priority 1971, dated 1978)
Converted amounts (≈) assume the structure as drawn.

What was measured:
tested microorganisms = test: antimicrobial activity in liquid nutrient medium (serial dilution, turbidity); format: cell-based
Method: (b) determination of the antimicrobial activity of antibiotics and their derivatives in liquid nutrient medium-- table 2.
The antimicrobial activity of antibiotics and their derivatives in liquid nutrient medium has been determined by making serial dilutions of antibiotics in the manner described above and by mixing of 0.5 ml of antibiotic solution with 4.5 ml of medium inoculated with tested microorganisms and prepared after Sabouraud without agar and with the addition of tarchocilin in the amount of 25 mg per 1 l. Solutions were allowed to stand for 48 hours at the temperature of 32° C.
Minimum concentration that inhibits the microorganisms growth has been determined on the basis of turbidity determined by extinction growth at […]; results are compared in table 2.

Candida albicans [1] = test: inhibition of pathogenic strains isolated from contaminated human members, Candida albicans; format: cell-based; settings: 12 strains studied
Method: (§3) Studies were also conducted on the activity of the glucose derivative of nystatin, as compared with nystatin, in relation to a series of pathogenic strains of Candida and Geotrichum isolated from contaminated human members.

Candida sp. = test: inhibition of pathogenic strains isolated from contaminated human members, Candida sp.; format: cell-based; settings: 8 strains studied
Method: as §3

Candida albicans [2] = test: antimicrobial activity in solid nutrient medium (serial dilution), Candida albicans; format: cell-based; settings: solid Sabouraud medium, 36° C, 24 hours
Method: (§1) (a) determination of the antimicrobial activity of antibiotics and their derivatives in solid nutrient medium-- table 1
(§2) The antimicrobial activity in solid nutrient medium has been estimated with the aid of the serial dilution method as follows: 1 mg of antibiotic was dissolved in 1 ml of dimethylsulphoxide and diluted with 9 ml of sterile water. Serial dilutions in water had been performed and the minimum concentration inhibiting the growth of standard strains of Candida albicans and Saccahromyces cerevisiae estimated: 0.5 ml of the antibiotic solution was mixed in a Petri dish 10 cm in diameter with 9.5 ml of Sabouraud medium having a temperature of about 60° C. After mixing, solidifying the nutrient agar and inoculating the test microorganism on the surface, they were incubated at 36° C for 24 hours. The minimum inhibitory concentration was stated on the basis of observed absence of microorganism growth.

Saccahromyces cerevisiae = test: antimicrobial activity in solid nutrient medium (serial dilution), Saccharomyces cerevisiae; format: cell-based; settings: solid Sabouraud medium, 36° C, 24 hours
Method: as §1, §2

Geotrichum sp. = test: inhibition of pathogenic strains isolated from contaminated human members, Geotrichum sp.; format: cell-based; settings: 12 strains studied
Method: as §3

Compound: C[C@@H]1[C@H](O)[C@@H](C)/C=C/C=C/CC/C=C/C=C/C=C/C=C/[C@H](O[C@@H]2O[C@H](C)[C@@H](O)[C@H](NC3O[C@H](CO)[C@@H](O)[C@H](O)[C@H]3O)[C@@H]2O)C[C@@H]2O[C@](O)(C[C@@H](O)[C@H](O)CC[C@@H](O)C[C@@H](O)C[C@@H](O)CC(=O)O[C@H]1C)C[C@H](O)[C@H]2C(=O)[O-].[Na+] (stereo partly shown)
- solubility / dispersion in water: form true solutions free of colloids

Compound: C[C@@H]1[C@H](O)[C@@H](C)/C=C/C=C/CC/C=C/C=C/C=C/C=C/[C@H](O[C@@H]2O[C@H](C)[C@@H](O)[C@H](NC3O[C@H](CO)[C@@H](O[C@H]4O[C@H](CO)[C@@H](O)[C@H](O)[C@H]4O)[C@H](O)[C@H]3O)[C@@H]2O)C[C@@H]2O[C@](O)(C[C@@H](O)[C@H](O)CC[C@@H](O)C[C@@H](O)C[C@@H](O)CC(=O)O[C@H]1C)C[C@H](O)[C@H]2C(=O)[O-].[Na+] (stereo partly shown)
- solubility / dispersion in water: form true solutions free of colloids

Compound: C[C@@H]1[C@H](O)[C@@H](C)/C=C/C=C/CC/C=C/C=C/C=C/C=C/[C@H](O[C@@H]2O[C@H](C)[C@@H](O)[C@H](NC3O[C@H](CO)[C@@H](O)[C@H](O)[C@H]3O)[C@@H]2O)C[C@@H]2O[C@](O)(C[C@@H](O)[C@H](O)CC[C@@H](O)C[C@@H](O)C[C@@H](O)CC(=O)O[C@H]1C)C[C@H](O)[C@H]2C(=O)O (stereo partly shown) [NGL nystatin A1]
- MIC (tested microorganisms; liquid medium after Sabouraud without agar, 48 hours, 32° C, extinction at 660 mm): 1.0 µg/mL (≈ 0.919 µM)

Compound: CC1C=CC=CC=CC=CC=CC=CC=CC(OC2OC(C)C(O)C(N)C2O)CC2OC(O)(CC(O)CC(O)C(O)CCC(O)CC(O)CC(=O)OC(C)C(C)C1O)CC(O)C2C(=O)O (stereo not shown) [amphotericin B]
- MIC (tested microorganisms; 48 h): 0.05 µg/mL (≈ 0.0541 µM)

Compound: COc1cc2c(c3oc(-c4ccccc4)cc(=O)c13)C=CC(C)(C)O2 [candidin]
- MIC (tested microorganisms; 48 h): 0.2 µg/mL (≈ 0.598 µM)

Compound: C[C@@H]1[C@H](O)[C@@H](C)/C=C/C=C/CC/C=C/C=C/C=C/C=C/[C@H](O[C@@H]2O[C@H](C)[C@@H](O)[C@H](NC3O[C@H](CO)[C@@H](O)[C@H](O)[C@H]3O)[C@@H]2O)C[C@@H]2O[C@](O)(C[C@@H](O)[C@H](O)CC[C@@H](O)C[C@@H](O)C[C@@H](O)CC(=O)O[C@H]1C)C[C@H](O)[C@H]2C(=O)O (stereo partly shown) [glucose derivative of nystatin]
- Number of strains the growth of which has been inhibited (Candida albicans [1]; Candida albicans after 24 hrs, 3.12 mcg/ml): 1 strains
- Number of strains the growth of which has been inhibited (Candida albicans [1]; Candida albicans after 24 hrs, 6.25 mcg/ml): 11 strains
- Number of strains the growth of which has been inhibited (Candida albicans [1]; Candida albicans after 24 hrs, 12.5 mcg/ml): 0 strains
- Number of strains the growth of which has been inhibited (Candida albicans [1]; Candida albicans after 24 hrs, 25.0 mcg/ml): 0 strains
- Number of strains the growth of which has been inhibited (Candida albicans [1]; Candida albicans after 24 hrs, 50.0 mcg/ml): 0 strains
- Number of strains the growth of which has been inhibited (Candida albicans [1]; Candida albicans after 48 hrs, 3.12 mcg/ml): 0 strains
- Number of strains the growth of which has been inhibited (Candida albicans [1]; Candida albicans after 48 hrs, 6.25 mcg/ml): 0 strains
- Number of strains the growth of which has been inhibited (Candida albicans [1]; Candida albicans after 48 hrs, 12.5 mcg/ml): 12 strains
- Number of strains the growth of which has been inhibited (Candida albicans [1]; Candida albicans after 48 hrs, 25.0 mcg/ml): 0 strains
- Number of strains the growth of which has been inhibited (Candida albicans [1]; Candida albicans after 48 hrs, 50.0 mcg/ml): 0 strains
- Number of strains the growth of which has been inhibited (Candida sp.; Candida sp. after 24 hrs, 3.12 mcg/ml): 2 strains
- Number of strains the growth of which has been inhibited (Candida sp.; Candida sp. after 24 hrs, 6.25 mcg/ml): 5 strains
- Number of strains the growth of which has been inhibited (Candida sp.; Candida sp. after 24 hrs, 12.5 mcg/ml): 0 strains
- Number of strains the growth of which has been inhibited (Candida sp.; Candida sp. after 24 hrs, 25.0 mcg/ml): 1 strains
- Number of strains the growth of which has been inhibited (Candida sp.; Candida sp. after 24 hrs, 50.0 mcg/ml): 0 strains
- Number of strains the growth of which has been inhibited (Candida sp.; Candida sp. after 48 hrs, 3.12 mcg/ml): 0 strains
- Number of strains the growth of which has been inhibited (Candida sp.; Candida sp. after 48 hrs, 6.25 mcg/ml): 2 strains
- Number of strains the growth of which has been inhibited (Candida sp.; Candida sp. after 48 hrs, 12.5 mcg/ml): 3 strains
- Number of strains the growth of which has been inhibited (Candida sp.; Candida sp. after 48 hrs, 25.0 mcg/ml): 2 strains
- Number of strains the growth of which has been inhibited (Candida sp.; Candida sp. after 48 hrs, 50.0 mcg/ml): 1 strains
- Minimum inhibitory concentration against Candida albicans (Candida albicans [2]): 2 µg/mL (≈ 1.84 µM)
- Minimum inhibitory concentration against cerevisiae (Saccahromyces cerevisiae): 2 µg/mL (≈ 1.84 µM)
- Number of strains the growth of which has been inhibited (Geotrichum sp.; Geotrichum sp. after 24 hrs, 3.12 mcg/ml): 0 strains
- Number of strains the growth of which has been inhibited (Geotrichum sp.; Geotrichum sp. after 24 hrs, 6.25 mcg/ml): 5 strains
- Number of strains the growth of which has been inhibited (Geotrichum sp.; Geotrichum sp. after 24 hrs, 12.5 mcg/ml): 7 strains
- Number of strains the growth of which has been inhibited (Geotrichum sp.; Geotrichum sp. after 24 hrs, 25.0 mcg/ml): 0 strains
- Number of strains the growth of which has been inhibited (Geotrichum sp.; Geotrichum sp. after 24 hrs, 50.0 mcg/ml): 0 strains
- Number of strains the growth of which has been inhibited (Geotrichum sp.; Geotrichum sp. after 48 hrs, 3.12 mcg/ml): 0 strains
- Number of strains the growth of which has been inhibited (Geotrichum sp.; Geotrichum sp. after 48 hrs, 6.25 mcg/ml): 0 strains
- Number of strains the growth of which has been inhibited (Geotrichum sp.; Geotrichum sp. after 48 hrs, 12.5 mcg/ml): 9 strains
- Number of strains the growth of which has been inhibited (Geotrichum sp.; Geotrichum sp. after 48 hrs, 25.0 mcg/ml): 3 strains
- Number of strains the growth of which has been inhibited (Geotrichum sp.; Geotrichum sp. after 48 hrs, 50.0 mcg/ml): 0 strains
